From ChEMBL document CHEMBL1152762, “Medicinal chemistry approaches to the inhibition of dipeptidyl peptidase-4 for the treatment of type 2 diabetes” (Bioorg Med Chem, 2009)

Legend:
[1] = molecular target: Dipeptidyl peptidase 4 (Homo sapiens, UniProt P27487)
[2] = species: Rattus norvegicus; experiment: animal or person; conditions: Plasma, 6 h, read-out: INH
[3] = molecular target: T1, Dipeptidyl peptidase 2 (Homo sapiens, UniProt Q9UHL4); experiment: Inhibition of DPP7
[4] = species: Rattus norvegicus
[5] = molecular target: Dipeptidyl peptidase 9 (Homo sapiens, UniProt Q86TI2); experiment: Inhibition of DPP9
Dipeptidyl peptidase 9, sequence (Q86TI2 whole entry): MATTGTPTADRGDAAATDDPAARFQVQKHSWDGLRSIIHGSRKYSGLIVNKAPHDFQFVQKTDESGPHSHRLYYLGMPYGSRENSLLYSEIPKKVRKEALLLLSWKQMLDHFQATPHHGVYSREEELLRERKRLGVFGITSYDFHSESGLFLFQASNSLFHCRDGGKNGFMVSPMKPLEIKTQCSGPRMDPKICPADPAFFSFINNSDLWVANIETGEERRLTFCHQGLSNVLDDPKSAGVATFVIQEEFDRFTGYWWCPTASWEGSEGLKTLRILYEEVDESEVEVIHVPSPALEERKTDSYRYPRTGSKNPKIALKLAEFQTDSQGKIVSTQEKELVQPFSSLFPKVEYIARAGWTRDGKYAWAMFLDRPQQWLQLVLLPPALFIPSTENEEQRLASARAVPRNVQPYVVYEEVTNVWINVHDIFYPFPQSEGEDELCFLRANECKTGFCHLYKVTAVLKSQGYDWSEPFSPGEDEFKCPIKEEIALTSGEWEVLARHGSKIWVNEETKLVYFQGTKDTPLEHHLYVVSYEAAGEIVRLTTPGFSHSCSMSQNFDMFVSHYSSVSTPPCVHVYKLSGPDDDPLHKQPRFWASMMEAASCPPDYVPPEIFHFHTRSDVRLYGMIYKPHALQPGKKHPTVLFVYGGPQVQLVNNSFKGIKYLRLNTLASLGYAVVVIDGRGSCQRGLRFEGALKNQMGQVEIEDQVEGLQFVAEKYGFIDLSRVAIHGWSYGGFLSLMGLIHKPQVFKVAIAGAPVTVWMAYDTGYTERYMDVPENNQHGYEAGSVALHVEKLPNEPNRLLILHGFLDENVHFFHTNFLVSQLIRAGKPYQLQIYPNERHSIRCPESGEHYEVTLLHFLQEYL

[6] = molecular target: T2, Prolyl endopeptidase FAP (Homo sapiens, UniProt Q12884); experiment: Inhibition of FAP
T2 sequence (Q12884 whole entry): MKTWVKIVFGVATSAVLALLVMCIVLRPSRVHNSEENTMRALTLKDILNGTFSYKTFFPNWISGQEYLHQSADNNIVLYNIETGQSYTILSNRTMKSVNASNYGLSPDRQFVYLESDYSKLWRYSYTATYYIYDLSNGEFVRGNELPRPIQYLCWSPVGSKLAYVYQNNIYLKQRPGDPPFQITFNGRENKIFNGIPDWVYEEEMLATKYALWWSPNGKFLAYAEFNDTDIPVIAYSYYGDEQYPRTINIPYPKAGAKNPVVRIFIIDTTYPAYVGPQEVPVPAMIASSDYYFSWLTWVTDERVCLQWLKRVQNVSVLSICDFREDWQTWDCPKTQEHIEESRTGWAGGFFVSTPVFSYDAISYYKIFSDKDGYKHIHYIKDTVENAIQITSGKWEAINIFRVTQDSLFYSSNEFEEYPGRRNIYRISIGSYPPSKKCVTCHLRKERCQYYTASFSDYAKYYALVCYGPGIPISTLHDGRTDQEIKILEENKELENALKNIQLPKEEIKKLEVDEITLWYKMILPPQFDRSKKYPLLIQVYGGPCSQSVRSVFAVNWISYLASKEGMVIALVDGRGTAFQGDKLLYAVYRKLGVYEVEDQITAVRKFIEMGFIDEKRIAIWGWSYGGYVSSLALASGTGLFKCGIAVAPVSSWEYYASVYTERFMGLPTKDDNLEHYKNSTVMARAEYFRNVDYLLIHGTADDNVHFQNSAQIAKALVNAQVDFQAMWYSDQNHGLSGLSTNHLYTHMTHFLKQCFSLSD

[7] = molecular target: Dipeptidyl peptidase 8 (Homo sapiens, UniProt Q6V1X1)
Dipeptidyl peptidase 8, sequence (Q6V1X1 whole entry): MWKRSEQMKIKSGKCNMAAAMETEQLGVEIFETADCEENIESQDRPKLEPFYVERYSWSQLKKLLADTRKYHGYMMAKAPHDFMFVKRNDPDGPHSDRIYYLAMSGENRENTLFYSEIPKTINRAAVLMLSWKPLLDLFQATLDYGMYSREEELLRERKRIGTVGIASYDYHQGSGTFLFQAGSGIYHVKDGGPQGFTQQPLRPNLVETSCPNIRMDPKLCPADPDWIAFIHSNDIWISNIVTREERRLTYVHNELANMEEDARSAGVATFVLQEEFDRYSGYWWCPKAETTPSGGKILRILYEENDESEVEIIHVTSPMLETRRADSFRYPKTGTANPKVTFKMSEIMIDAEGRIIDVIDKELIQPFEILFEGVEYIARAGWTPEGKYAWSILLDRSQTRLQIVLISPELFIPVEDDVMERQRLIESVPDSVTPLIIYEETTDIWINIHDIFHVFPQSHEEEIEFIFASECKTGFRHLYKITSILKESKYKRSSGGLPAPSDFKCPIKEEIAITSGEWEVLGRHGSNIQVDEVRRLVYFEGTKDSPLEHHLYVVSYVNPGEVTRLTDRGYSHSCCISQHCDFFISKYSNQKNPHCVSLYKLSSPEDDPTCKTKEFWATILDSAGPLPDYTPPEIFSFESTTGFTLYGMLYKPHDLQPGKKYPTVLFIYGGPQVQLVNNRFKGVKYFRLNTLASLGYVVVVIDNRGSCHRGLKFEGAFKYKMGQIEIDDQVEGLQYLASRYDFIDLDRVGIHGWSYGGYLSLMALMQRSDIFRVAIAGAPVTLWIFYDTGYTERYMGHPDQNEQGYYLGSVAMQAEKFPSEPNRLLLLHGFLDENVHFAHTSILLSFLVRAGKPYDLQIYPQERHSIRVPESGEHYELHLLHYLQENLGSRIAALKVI

[8] = molecular target: T1, Dipeptidyl peptidase 2
[9] = Cmax in Wistar rat at 1 mg/kg after 10 mins; type: ADME, organism-based; set-up: dose 1 mg/kg; conditions: in vivo
[10] = Oral bioavailability in cynomolgus monkey; type: ADME, organism-based, Macaca fascicularis; conditions: in vivo
[11] = test system: Mus musculus; experiment: Reduction of glucose excursion in C57BL6/N mouse at 3 mg/kg, po; type: functional; set-up: scale not given: the % may be the effect or the level left
[12] = molecular target: T3, Dipeptidyl peptidase 4 (Rattus norvegicus, UniProt P14740)
T3 sequence (P14740 whole entry): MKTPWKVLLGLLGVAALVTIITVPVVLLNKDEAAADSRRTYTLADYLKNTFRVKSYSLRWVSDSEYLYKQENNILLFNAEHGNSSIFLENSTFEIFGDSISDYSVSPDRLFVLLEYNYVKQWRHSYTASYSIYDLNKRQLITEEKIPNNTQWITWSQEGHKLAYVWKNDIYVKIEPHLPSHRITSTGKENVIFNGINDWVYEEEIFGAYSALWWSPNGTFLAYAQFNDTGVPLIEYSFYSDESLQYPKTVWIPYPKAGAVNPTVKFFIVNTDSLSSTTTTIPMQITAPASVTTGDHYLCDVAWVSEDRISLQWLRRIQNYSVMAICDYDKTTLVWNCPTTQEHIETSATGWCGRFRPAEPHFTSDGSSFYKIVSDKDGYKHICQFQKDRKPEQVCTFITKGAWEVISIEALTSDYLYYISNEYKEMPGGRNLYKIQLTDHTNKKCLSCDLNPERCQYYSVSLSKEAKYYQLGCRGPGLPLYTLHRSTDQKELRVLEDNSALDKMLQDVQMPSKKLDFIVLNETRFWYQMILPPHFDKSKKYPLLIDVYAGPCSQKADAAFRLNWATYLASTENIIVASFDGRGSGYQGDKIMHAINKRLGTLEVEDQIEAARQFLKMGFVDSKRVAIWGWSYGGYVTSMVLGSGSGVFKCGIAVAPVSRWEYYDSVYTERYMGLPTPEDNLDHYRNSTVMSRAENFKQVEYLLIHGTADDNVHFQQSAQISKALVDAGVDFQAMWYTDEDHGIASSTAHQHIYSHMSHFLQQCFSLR

[13] = test system: Rattus norvegicus; experiment: Ex-vivo inhibition of DPP4 in rat plasma at 10 mg/kg, po after 12 hrs; type: functional
[14] = molecular target: Dipeptidyl peptidase 4 (Sus scrofa, UniProt P22411); experiment: Inhibition of pig kidney DPP4
Dipeptidyl peptidase 4 (Sus scrofa, UniProt P22411), sequence (P22411 whole entry): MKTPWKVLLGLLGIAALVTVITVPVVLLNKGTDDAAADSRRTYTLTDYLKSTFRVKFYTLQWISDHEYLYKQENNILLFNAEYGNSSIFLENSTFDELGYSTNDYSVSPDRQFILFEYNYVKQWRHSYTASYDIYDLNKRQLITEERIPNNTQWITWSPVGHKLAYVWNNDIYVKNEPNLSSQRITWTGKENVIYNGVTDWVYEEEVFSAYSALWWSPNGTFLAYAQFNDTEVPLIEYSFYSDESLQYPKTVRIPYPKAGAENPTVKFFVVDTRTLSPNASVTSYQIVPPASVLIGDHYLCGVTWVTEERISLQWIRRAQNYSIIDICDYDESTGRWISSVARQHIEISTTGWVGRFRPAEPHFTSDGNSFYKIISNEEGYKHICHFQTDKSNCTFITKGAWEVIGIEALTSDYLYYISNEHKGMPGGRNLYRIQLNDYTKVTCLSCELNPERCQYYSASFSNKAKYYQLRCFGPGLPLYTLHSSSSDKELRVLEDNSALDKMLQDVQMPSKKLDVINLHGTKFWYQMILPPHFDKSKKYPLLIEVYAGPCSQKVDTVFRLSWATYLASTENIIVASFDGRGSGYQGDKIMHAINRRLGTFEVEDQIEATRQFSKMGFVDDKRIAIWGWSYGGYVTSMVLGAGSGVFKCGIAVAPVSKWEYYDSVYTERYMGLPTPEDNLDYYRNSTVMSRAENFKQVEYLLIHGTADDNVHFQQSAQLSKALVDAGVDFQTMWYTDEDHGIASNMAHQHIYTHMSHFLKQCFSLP

[15] = molecular target: T3, Dipeptidyl peptidase 4; remark: listed apart in the source
[16] = Selectivity for DPP4 over DPP8
[17] = molecular target: Dipeptidyl peptidase 4 (Mus musculus, UniProt P28843); experiment: Inhibition of mouse DPP4
Dipeptidyl peptidase 4 (Mus musculus, UniProt P28843), sequence (P28843 whole entry): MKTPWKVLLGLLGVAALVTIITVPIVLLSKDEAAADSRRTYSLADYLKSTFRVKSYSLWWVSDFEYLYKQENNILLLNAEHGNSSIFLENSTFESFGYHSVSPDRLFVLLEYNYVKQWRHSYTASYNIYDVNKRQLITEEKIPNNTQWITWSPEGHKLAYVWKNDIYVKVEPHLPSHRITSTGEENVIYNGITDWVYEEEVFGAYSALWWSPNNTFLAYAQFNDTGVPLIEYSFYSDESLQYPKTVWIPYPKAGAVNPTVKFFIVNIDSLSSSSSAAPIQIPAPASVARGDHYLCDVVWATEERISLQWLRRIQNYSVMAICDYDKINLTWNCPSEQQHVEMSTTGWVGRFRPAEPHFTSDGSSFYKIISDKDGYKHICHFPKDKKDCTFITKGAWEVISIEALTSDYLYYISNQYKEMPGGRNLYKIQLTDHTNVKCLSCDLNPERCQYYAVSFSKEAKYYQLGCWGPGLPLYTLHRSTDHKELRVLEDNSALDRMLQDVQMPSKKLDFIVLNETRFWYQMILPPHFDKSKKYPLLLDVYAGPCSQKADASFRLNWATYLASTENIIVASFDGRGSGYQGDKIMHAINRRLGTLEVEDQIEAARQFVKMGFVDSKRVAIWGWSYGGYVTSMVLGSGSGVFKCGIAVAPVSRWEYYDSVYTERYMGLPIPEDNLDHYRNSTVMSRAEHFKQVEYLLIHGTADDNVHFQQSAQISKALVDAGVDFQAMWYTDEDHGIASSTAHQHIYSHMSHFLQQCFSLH

[18] = Oral bioavailability in Sprague-Dawley rat at 10 mg/kg; type: ADME, organism-based; conditions: in vivo
[19] = Half life in Sprague-Dawley rat at 10 mg/kg, po; type: ADME, organism-based; set-up: dose 10 mg/kg, route oral; conditions: in vivo
[20] = Stability in pH 7.4 buffer; type: physicochemical
[21] = species: Rattus norvegicus; experiment: animal or person; conditions: Plasma, 0.5 h, read-out: INH
[22] = species: Rattus norvegicus; experiment: animal or person; conditions: Plasma, 4 h, read-out: INH
[23] = species: Rattus norvegicus; experiment: animal or person; conditions: Plasma, po, 6 h, read-out: INH
[24] = species: Rattus norvegicus; experiment: animal or person; conditions: Plasma, po, 10 h, read-out: INH

Dipeptidyl peptidase 4 (Homo sapiens, UniProt P27487), sequence (P27487 whole entry): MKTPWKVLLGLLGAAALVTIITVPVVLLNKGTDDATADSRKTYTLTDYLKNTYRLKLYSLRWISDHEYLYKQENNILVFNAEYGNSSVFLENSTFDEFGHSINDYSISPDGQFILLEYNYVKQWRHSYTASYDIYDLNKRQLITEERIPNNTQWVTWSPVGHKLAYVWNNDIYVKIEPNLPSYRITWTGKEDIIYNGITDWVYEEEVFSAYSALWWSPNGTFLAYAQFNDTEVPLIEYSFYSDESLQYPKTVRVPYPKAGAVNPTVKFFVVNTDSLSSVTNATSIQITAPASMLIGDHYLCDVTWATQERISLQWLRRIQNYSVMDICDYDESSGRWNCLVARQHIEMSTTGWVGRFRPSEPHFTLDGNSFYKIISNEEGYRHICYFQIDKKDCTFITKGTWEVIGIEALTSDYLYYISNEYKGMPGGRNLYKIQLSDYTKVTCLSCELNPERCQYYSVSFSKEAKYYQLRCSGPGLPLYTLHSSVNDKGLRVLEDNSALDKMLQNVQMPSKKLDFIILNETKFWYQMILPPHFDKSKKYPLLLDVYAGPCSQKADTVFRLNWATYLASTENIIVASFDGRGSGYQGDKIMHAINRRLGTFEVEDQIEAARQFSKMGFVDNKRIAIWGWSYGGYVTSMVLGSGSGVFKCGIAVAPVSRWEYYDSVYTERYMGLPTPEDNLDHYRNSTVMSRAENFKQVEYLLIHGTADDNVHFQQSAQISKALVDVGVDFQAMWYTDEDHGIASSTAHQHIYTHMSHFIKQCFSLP

CC(C)=CCN1C(C2CC[C@H]3NCC[C@@H]23)=NC2C1C(=O)N(CC(=O)c1ccccc1)C(=O)N2C (stereo partly specified)
IC50 [1]: 18 nM

COc1ccc(CS(=O)(=O)C(C)(C)[C@H](N)C(=O)N2C[C@@H](F)C[C@H]2C#N)cc1
inhibition in vivo at 1 mg/kg [2]: 84%

O=C(CNC12CC3CC(CC(C3)C1)C2)N1CCC[C@H]1B(O)O
IC50 [1]: 8 nM | IC50 [3]: 420 nM

CC(c1nc(-c2ccc(S(C)(=O)=O)cc2Cl)no1)[C@H](N)C(F)=C1CCCC1.O=C(O)C(F)(F)F (stereo partly specified)
IC50 [4]: 62%

CC(C)[C@H](Oc1ccc(CNC(=O)[C@@H]2CCCN2C(=O)C[C@H](N)Cc2cc(F)ccc2F)cc1)C(=O)O
IC50 [1]: 0.48 nM | IC50 [5]: > 86000 nM | IC50 [6]: 21000 nM | IC50 [7]: > 100000 nM | IC50 [8]: > 100000 nM

CC[C@H](C)[C@H](N)C(=O)N1C[C@@H](F)C[C@H]1C#N
Cmax [9]: 372 ng/mL

N#C[C@@H]1CCCN1C(=O)CNC12CC3CC(CC(O)(C3)C1)C2 [VILDAGLIPTIN]
bioavailability [10]: > 90%

N[C@H](C(=O)N1CC[C@H](F)C1)[C@H]1CC[C@H](NS(=O)(=O)c2ccc(F)cc2F)CC1
Activity [11]: 42%

N[C@H](C(=O)N1CCCC1)[C@H]1CC[C@H](NS(=O)(=O)c2ccc(F)cc2F)CC1
Activity [11]: 36%

CN(C)C(=O)[C@@H](c1ccc(C2=CN3N=CNC3C=C2)cc1)[C@H](N)C(=O)N1CC[C@H](F)C1 (stereo partly specified)
IC50 [5]: > 100000 nM | IC50 [7]: > 100000 nM | IC50 [8]: > 100000 nM

N#Cc1ccc(N[C@@H]2CNC(C(=O)N3CCC[C@H]3C#N)C2)cc1C#N (stereo partly specified)
IC50 [12]: 0.17 nM

N#Cc1ccccc1Cn1c(N2CCC[C@@H](N)C2)nc2ccc(F)cc2c1=O
inhibition in vivo at 10 mg/kg [13]: 50%

N#Cc1ccc(NCCNCC(=O)N2N=CCC2C#N)nc1 (stereo unspecified)
IC50 [14]: 490 nM | IC50 [15]: 780 nM

CC(C)(C)C(NC(=O)C[C@@H](N)C(=O)N1CCC[C@H]1C#N)c1ccccc1 (stereo partly specified)
IC50 [1]: 251 nM | Selectivity ratio [16]: 53

CC1(NCC(=O)N2C[C@H](F)C[C@@H]2C#N)CCN(S(C)(=O)=O)CC1
IC50 [17]: 2.6 nM

CC(N)/C(F)=C1\CCC[C@@H]1C#N (stereo partly specified)
IC50 [1]: 7690 nM

N#Cc1ccc(N[C@@H]2CN[C@H](C(=O)N3CCSC3)C2)nc1
bioavailability [18]: 83.9% | half-life [19]: 5.27 h | IC50 [15]: 30.4 nM

N#C[C@@H]1CCCN1C(=O)[C@@H](N)C1CCCCC1
half-life [20]: > 48 h

N#C[C@@H]1C[C@@H]2C[C@@H]2N1C(=O)[C@@H](N)C12CC3CC(CC(O)(C3)C1)C2 [SAXAGLIPTIN ANHYDROUS]
inhibition in vivo at 4 µmol/kg [21]: 87% | inhibition in vivo at 4 µmol/kg [22]: 87%

CC(N)/C(F)=C1\CCC[C@@H]1C#N (single isomer, unassigned; diastereomer 2)
IC50 [1]: 6030 nM

COc1ccccc1N1CCc2nc(C)c(CN)c(-c3ccc(Cl)cc3Cl)c2C1=O
IC50 [1]: 2.28 nM

Cc1ccc(O)c(C)c1[C@@H]1CN[C@H](C(=O)N2CCC[C@H]2C#N)C1
inhibition in vivo at 1 mg/kg [23]: 95% | inhibition in vivo at 1 mg/kg [24]: 83%

C[C@H](N)C(=O)N1CCC[C@H]1B(O)O
Ki [8]: 125 nM
